Measurements reported in patent US20200071361A1, “ENGINEERED ANTIMICROBIAL AMPHIPHILIC PEPTIDES AND METHODS OF USE” (priority 2017, published 2020).
In brackets after ≈: the same amount, converted by molar mass.

How the values were obtained:
[1] = tested on: Acinetobacter baumannii ATCC 19606 (non-MDR); test: Broth microdilution MIC (Table 2); type: cell-based; settings: ATCC19606, read-out: MIC
Experimental: (§1) Each peptide was formulated in PBS buffer prior to testing. Peptides of SEQ ID NO:5 and SEQ ID NO:8 were brought up in 100% DMSO with 0.002% polysorbate-80 at 1.28 mg/mL (40× the highest final test concentration of 32 mcg/mL). Final test concentration of DMSO was 2.5% in the assay at the first dilution for those two compounds.
(§2) Mueller Hinton II broth (MHB II; BD; Lot Nos. 6258541 and 7143896) was used for MIC testing of aerobic organisms. 0.002% polysorbate 80 (P80) was added to the test medium.
(§3) MIC values were determined using a broth microdilution procedure described by CLSI (1, 3). Automated liquid handlers (Multidrop 384, Labsystems, Helsinki, Finland; Biomek 2000 and Biomek FX, Beckman Coulter, Fullerton Calif.) were used to conduct serial dilutions and liquid transfers.
(§4) To prepare the drug mother plates, which would provide the serial peptide dilutions for the replicate daughter plates, the wells of columns 2-12 of standard 96-well microdilution plates (Costar 3795) were filled with 150 μl of the designated diluent for each row of peptide. The test articles and comparator compounds (300 μl at 40× the highest concentration to be tested) were dispensed into the appropriate wells in column 1. The Biomek 2000 was then used to make 2-fold serial dilutions in the mother plates from column 1 through column 11. The wells of Column 12 contained no drug and served as the organism growth control wells for the assay.
(§5) The daughter plates were loaded with 185 μL per well of MHB II using the Multidrop 384. The daughter plates were completed on the Biomek FX instrument which transferred 5 uL of peptide solution from each well of a mother plate to the corresponding well of each daughter plate in a single step. A standardized inoculum of each test organism was prepared per CLSI methods. The inoculum for each organism was dispensed into sterile reservoirs divided by length (Beckman Coulter), and the Biomek 2000 was used to inoculate the plates. Daughter plates were placed on the Biomek 2000 work surface in reverse orientation so that inoculation took place from low to high drug concentration. The plates were then inoculated with 10 μL of the inoculum resulting in a final cell density of approximately 5×10^5 CFU/mL, per well.
(§6) Plates were stacked 3-4 high, covered with a lid on the top plate, placed in plastic bags, and incubated at 35° C. for 16 to 20 hrs. Following incubation, the microplates were removed from the incubator and viewed from the bottom using a plate viewer. […] The MIC was read and recorded as the lowest concentration of peptide that inhibited visible growth of the organism.

[2] = tested on: Acinetobacter baumannii ATCC BAA-1797 (MDR); test: Broth microdilution MIC (Table 2); type: cell-based; settings: ATCCBAA1797, read-out: MIC
Experimental: as §1, §2, §3, §4, §5, §6

[3] = tested on: Enterococcus faecalis ATCC 29212 (VSE; QC); test: Broth microdilution MIC (Table 2); type: cell-based; settings: ATCC29212, read-out: MIC
Experimental: as §1, §2, §3, §4, §5, §6

[4] = tested on: Enterococcus faecalis ATCC 700802 (V583 VRE); test: Broth microdilution MIC (Table 2); type: cell-based; settings: read-out: MIC
Experimental: as §1, §2, §3, §4, §5, §6

[5] = tested on: Escherichia coli ATCC 25922 (QC); test: Broth microdilution MIC (Table 2); type: cell-based; settings: ATCC25922
Experimental: as §1, §2, §3, §4, §5, §6

[6] = tested on: Escherichia coli ATCC 35218 (ESBL); test: Broth microdilution MIC (Table 2); type: cell-based; settings: ATCC35218
Experimental: as §1, §2, §3, §4, §5, §6

[7] = tested on: Pseudomonas aeruginosa ATCC 27853 (non-MDR; QC); test: Broth microdilution MIC (Table 2); type: cell-based; settings: ATCC27853, read-out: MIC
Experimental: as §1, §2, §3, §4, §5, §6

[8] = tested on: Pseudomonas aeruginosa ATCC BAA-2109 (MDR); test: Broth microdilution MIC (Table 2); type: cell-based; settings: ATCCBAA2109
Experimental: as §1, §2, §3, §4, §5, §6

[9] = tested on: Staphylococcus aureus ATCC 29213 (MSSA; QC); test: Broth microdilution MIC (Table 2); type: cell-based; settings: read-out: MIC
Experimental: as §1, §2, §3, §4, §5, §6

[10] = tested on: Streptococcus agalactiae ATCC 13813; test: Broth microdilution MIC (Table 2); type: cell-based; settings: ATCC13813, read-out: MIC
Experimental: as §1, §2, §3, §4, §5, §6

[11] = tested on: Streptococcus pyogenes ATCC 49399; test: Broth microdilution MIC (Table 2); type: cell-based; settings: ATCC49399, read-out: MIC
Experimental: as §1, §2, §3, §4, §5, §6

[12] = tested on: Acinetobacter spp. isolates (n = 104); test: Broth microdilution MIC, clinical isolate panel; type: cell-based; settings: Acinetobacter spp. (n = 104); for MIC: read-out: Mode (MIC)
Experimental: (§7) Comparator antibiotics were supplied by Micromyx, and stock solutions were prepared on the first day of testing using solvents recommended by CLSI (1). Stock solutions of all compounds were made at 40× the final testing concentration and stored at −80° C. prior to testing. Information regarding compound source, catalog and lot number, testing concentrations and drug diluent for the comparators and test agent are detailed below in Table 3.
(§8) The test organisms evaluated in this study consisted of clinical isolates from the Micromyx Repository and reference isolates from the American Type Culture Collection (ATCC; Manassas, Va.). The clinical isolates were obtained from USA hospitals. Upon initial receipt at Micromyx, the organisms were sub-cultured onto an appropriate agar medium. Following incubation, colonies were harvested from these plates and cell suspensions prepared and frozen at −80° C. with a cryoprotectant. Prior to testing, the isolates were streaked from frozen vials onto Trypticase Soy Agar with 5% sheep blood (Becton Dickenson [BD]; Sparks, Md.; Lot Nos. 7173618, 7166759, 7208688, 72144895, 7228505 and Remel Lenexa, Kans. Lot No. 212574). Plates were incubated at 35° C. overnight.
(§9) Mueller Hinton II broth (MHB II; BD; Lot Nos. 6258541 and 7143896) was used for MIC testing of aerobic organisms.
as §3
as §4, with “drug” for “peptide”, “drug.” for “peptide.”
as §5, with “µL” for “uL”, “drug” for “peptide”, “methods (1).” for “methods.”, “concentration.” for “concentration. The plates were then inoculated with 10 μL of the inoculum resulting in a final cell density of approximately 5×10^5 CFU/mL, per well.”
as §6, with “drug” for “peptide”
(§10) Clinical breakpoints to determine percent resistance within a given organism group were obtained from CLSI (3), with the exception of colistin for K. pneumoniae, Enterobacter spp., and E. coli, which are only available from EUCAST.

[13] = tested on: Escherichia coli isolates (n = 101); test: Broth microdilution MIC, clinical isolate panel; type: cell-based; settings: Escherichia coli (n = 101)
Experimental: as §7, §8, §9, §3
as §4, with “drug” for “peptide”, “drug.” for “peptide.”
as §5, with “µL” for “uL”, “drug” for “peptide”, “methods (1).” for “methods.”, “concentration.” for “concentration. The plates were then inoculated with 10 μL of the inoculum resulting in a final cell density of approximately 5×10^5 CFU/mL, per well.”
as §6, with “drug” for “peptide”
as §10

[14] = tested on: Klebsiella pneumoniae isolates (n = 101); test: Broth microdilution MIC, clinical isolate panel; type: cell-based; settings: Klebsiella pneumoniae (n = 101); for MIC: read-out: Mode (MIC)
Experimental: as §7, §8, §9, §3
as §4, with “drug” for “peptide”, “drug.” for “peptide.”
as §5, with “µL” for “uL”, “drug” for “peptide”, “methods (1).” for “methods.”, “concentration.” for “concentration. The plates were then inoculated with 10 μL of the inoculum resulting in a final cell density of approximately 5×10^5 CFU/mL, per well.”
as §6, with “drug” for “peptide”
as §10

[15] = tested on: Pseudomonas aeruginosa isolates (n = 109); test: Broth microdilution MIC, clinical isolate panel; type: cell-based; settings: for % R (percent of isolates resistant, clinical breakpoints): Pseudomonas aeruginosa (n = 109)
Experimental: as §7, §8, §9, §3
as §4, with “drug” for “peptide”, “drug.” for “peptide.”
as §5, with “µL” for “uL”, “drug” for “peptide”, “methods (1).” for “methods.”, “concentration.” for “concentration. The plates were then inoculated with 10 μL of the inoculum resulting in a final cell density of approximately 5×10^5 CFU/mL, per well.”
as §6, with “drug” for “peptide”
as §10

[16] = tested on: Enterobacter spp. isolates (n = 102); test: Broth microdilution MIC, clinical isolate panel; type: cell-based, Enterobacter aerogenes and E. cloacae; settings: Enterobacter spp. (n = 102)
Experimental: as §7, §8, §9, §3
as §4, with “drug” for “peptide”, “drug.” for “peptide.”
The daughter plates were loaded with 185 μL per well of MHB II using the Multidrop 384. The daughter plates were completed on the Biomek FX instrument which transferred 5 µL of drug solution from each well of a mother plate to the corresponding well of each daughter plate in a single step. […]
Plates were stacked 3-4 high, covered with a lid on the top plate, placed in plastic bags, and incubated at 35° C. for 16 to 20 hrs. […] The MIC was read and recorded as the lowest concentration of drug that inhibited visible growth of the organism. […]

SMILES	MIC50 [12]	MIC90 [12]	MIC [12]	MIC90 [13]	% R (percent of isolates resistant, clinical breakpoints) [14]	MIC50 [14]	MIC90 [14]	MIC [14]	MIC90 ([15]; Pseudomonas aeruginosa)	% R (percent of isolates resistant, clinical breakpoints) [15]	% R (percent of isolates resistant, clinical breakpoints) [16]	further results
C[C@@H](O)[C@H]1C(=O)N2C(C(=O)O)=C(S[C@@H]3CN[C@H](C(=O)N(C)C)C3)[C@H](C)[C@H]12 [Meropenem]	> 8 µg/mL	> 8 µg/mL	> 8 µg/mL	0.03 µg/mL (≈ 0.0782 µM)	Fifty percent	4 µg/mL (≈ 10.4 µM)	> 8 µg/mL	> 8 µg/mL	> 8 µg/mL	20%	3.9%	MIC [1]: 0.5 µg/mL (≈ 1.3 µM); MIC [2]: 0.25 µg/mL (≈ 0.652 µM); MIC [3]: 4 µg/mL (≈ 10.4 µM); MIC [4]: 4 µg/mL (≈ 10.4 µM); MIC [5]: 0.015 µg/mL (≈ 0.0391 µM); MIC [6]: 0.015 µg/mL (≈ 0.0391 µM); MIC [7]: 0.25 µg/mL (≈ 0.652 µM); MIC [8]: 0.015 µg/mL (≈ 0.0391 µM); MIC [9]: 0.12 µg/mL (≈ 0.313 µM); MIC [10]: 0.008 µg/mL (≈ 0.0209 µM); MIC [11]: ≤ 0.004 µg/mL; % R (percent of isolates resistant, clinical breakpoints) [13]: 1%; MIC50 [13]: 0.015 µg/mL (≈ 0.0391 µM); MIC ([13]; read-out: Mode (MIC)): 0.015 µg/mL (≈ 0.0391 µM); MIC50 ([15]; Pseudomonas aeruginosa): 0.5 µg/mL (≈ 1.3 µM); MIC ([15]; Pseudomonas aeruginosa, read-out: Mode (MIC)): 0.25 µg/mL (≈ 0.652 µM)
NC[C@H]1O[C@H](O[C@H]2[C@H](O)[C@@H](O[C@H]3O[C@H](CO)[C@@H](O)[C@H](N)[C@H]3O)[C@H](N)C[C@@H]2N)[C@H](N)C[C@@H]1O [Tobramycin]	8 µg/mL (≈ 17.1 µM)	> 64 µg/mL	> 64 µg/mL	32 µg/mL (≈ 68.4 µM)	over 60%	16 µg/mL (≈ 34.2 µM)	64 µg/mL (≈ 137 µM)	16 µg/mL (≈ 34.2 µM)	4 µg/mL (≈ 8.56 µM)	7.4%	3.9%	% R (percent of isolates resistant, clinical breakpoints) [12]: 49.0%
